Data set [1] has as its system HCV replicon (genotype 1b) in Huh7 cell line ET. The data set can be described thus: microbe, parasite or virus in culture. The class given is cell-based, HCV genotype 1b. Particulars: Hepatitis C virus, Huh-7, read-out: HCV-Replicon-(Luci-ET) 1b_IC50.
Data set [2] can be described thus: [3H]Thymidine incorporation assay (cell toxicity). The note with it: human.

`CCC1CCC(C(=O)N(c2cc(C#CC(C)(C)C)sc2C(=O)O)[C@@H](COC)C(=O)N2CCCC2)CC1` (stereo partly drawn) [Compound 63, 5-(3,3-Dimethylbut-1-ynyl)-3-[(4-ethylcyclohexanecarbonyl)-[(1S)-1-(methoxymethyl)-2-oxo-2-pyrrolidin-1-yl-ethyl]amino]thiophene-2-carb oxylic acid]: the IC50 in data set [1] lay in the range of 0.1 to 1 µM. For the same compound, in data set [2], the CC50 (usually the concentration that lowers cell viability or growth by half) at 72 h was in the range of 10 to 100 µM.

In the case of `CO[C@@H](C)[C@@H](C(=O)N(C)C)N(c1cc(C#CC(C)(C)C)sc1C(=O)O)C(=O)[C@H]1CC[C@H](C)CC1` [Compound 66, 5-(3,3-Dimethylbut-1-ynyl)-3-[[(1S,2S)-1-(dimethylcarbamoyl)-2-methoxy-propyl]-(trans-4-methylcyclohexanecarbonyl)amino]thiophene-2-carboxylic acid], the IC50 in data set [1] is less than 0.1 µM. In data set [2], the CC50 at 72 h was greater than 100 µM.

As for `CC(C)C#Cc1cc(N(CC(=O)N(C)C)C(=O)C2CCC(C)CC2)c(C(=O)O)s1` (centres unmarked) [Compound 67], the IC50 in data set [1] is less than 0.1 µM. This compound also returned a half-maximal cytotoxic concentration (CC50) at 72 h in data set [2] greater than 100 µM.

In the case of `CCC[C@@H](C(=O)N(C)C)N(c1cc(C#CC(C)(C)C)sc1C(=O)O)C(=O)[C@H]1CC[C@H](C)CC1` [Compound 68, 5-(3,3-Dimethylbut-1-ynyl)-3-[[(1S)-1-(dimethylcarbamoyl)butyl]-(trans-4-methylcyclohexanecarbonyl)amino]thiophene-2-carboxylic acid], the IC50 in data set [1] was less than 0.1 µM. Besides, the CC50 at 72 h in data set [2] was in the range of 10 to 100 µM.

Regarding `CC(C)C#Cc1cc(N(CC(=O)N2CCNCC2)C(=O)C2CCC(C)CC2)c(C(=O)O)s1` (centres unmarked) [Compound 69], in data set [1], the IC50 was less than 0.1 µM. In data set [2], this compound returned a CC50 at 72 h greater than 100 µM.

As to `CNC(=O)CN(C(=O)C1CCC(C)CC1)c1cc(C#CC(C)C)sc1C(=O)O` (centres unmarked) [Compound 70], the IC50 in data set [1] was less than 0.1 µM. In data set [2], this compound yielded a CC50 at 72 h greater than 100 µM.

With `CO[C@@H](C)[C@H](C(=O)N1CCOCC1)N(c1cc(C#CC(C)(C)C)sc1C(=O)O)C(=O)[C@H]1CC[C@H](C)CC1` [Compound 72, 5-(3,3-dimethylbut-1-ynyl)-3-[[(1R,2S)-2-methoxy-1-(morpholine-4-carbonyl)propyl]-(trans-4-methylcyclohexanecarbonyl)amino]thiophene-2-carboxylic acid], the IC50 in data set [1] is less than 0.1 µM. The compound also returned a CC50 at 72 h in data set [2] greater than 100 µM.

For the compound `CC(C)NC(=O)CN(c1cc(C#CC(C)(C)C)sc1C(=O)O)C(=O)[C@H]1CC[C@H](C)CC1` [Compound 73, 5-(3,3-dimethylbut-1-ynyl)-3-[[2-(isopropylamino)-2-oxo-ethyl]-(trans-4-methylcyclohexanecarbonyl)amino]thiophene-2-carboxylic acid], the IC50 in data set [1] is less than 0.1 µM. Also, the CC50 at 72 h in data set [2] was greater than 100 µM.

On to `CO[C@H](C)[C@H](C(=O)N1CCOCC1)N(c1cc(C#CC(C)(C)C)sc1C(=O)O)C(=O)[C@H]1CC[C@H](C)CC1` [Compound 74, 5-(3,3-dimethylbut-1-ynyl)-3-[[(1R,2R)-2-methoxy-1-(morpholine-4-carbonyl)propyl]-(trans-4-methylcyclohexanecarbonyl)amino]thiophene-2-carboxylic acid], for which the IC50 in data set [1] is less than 0.1 µM. In data set [2], this compound yielded a cytotoxic concentration (CC50) at 72 h greater than 100 µM.

Regarding `CC[C@@H](C(=O)N(C)C1CCN(C)CC1)N(c1cc(C#CC(C)(C)C)sc1C(=O)O)C(=O)[C@H]1CC[C@H](C)CC1` [Compound 76, 5-(3,3-Dimethylbut-1-ynyl)-3-[(trans-4-methylcyclohexanecarbonyl)-[(1S)-1-[methyl-(1-methyl-4-piperidyl)carbamoyl]propyl]amino]thiophene-2-carboxylic acid], the IC50 in data set [1] was less than 0.1 µM. In data set [2], this compound displayed a CC50 at 72 h of 10 to 100 µM.

Regarding `CC[C@@H](C(=O)N(C)CCO)N(c1cc(C#CC(C)(C)C)sc1C(=O)O)C(=O)[C@H]1CC[C@H](C)CC1` [Compound 77, 5-(3,3-Dimethylbut-1-ynyl)-3-[[(1S)-1-[2-hydroxyethyl(methyl)carbamoyl]propyl]-(trans-4-methylcyclohexanecarbonyl)amino]thiophene-2-carboxylic acid], the IC50 in data set [1] is less than 0.1 µM. Also, the 50% cytotoxic concentration (CC50) at 72 h in data set [2] was greater than 100 µM.

For the compound `CC[C@@H](C(=O)N(C)CC1CCOC1)N(c1cc(C#CC(C)(C)C)sc1C(=O)O)C(=O)[C@H]1CC[C@H](C)CC1` (stereo partly drawn) [Compound 80, 5-(3,3-Dimethylbut-1-ynyl)-3-[(trans-4-methylcyclohexanecarbonyl)-[(1S)-1-[methyl(tetrahydrofuran-3-ylmethyl)carbamoyl]propyl]amino]thiophene-2-carboxylic acid], the IC50 in data set [1] was less than 0.1 µM. This compound registered a half-maximal cytotoxic concentration (CC50) at 72 h in data set [2] greater than 100 µM.

As to `CC[C@@H](C(=O)N(C)C1CCOCC1)N(c1cc(C#CC(C)(C)C)sc1C(=O)O)C(=O)[C@H]1CC[C@H](C)CC1` [Compound 81, 5-(3,3-Dimethylbut-1-ynyl)-3-[(trans-4-methylcyclohexanecarbonyl)-[(1S)-1-[methyl(tetrahydropyran-4-yl)carbamoyl]propyl]amino]thiophene-2-carboxylic acid], the IC50 in data set [1] was less than 0.1 µM. In data set [2], this compound gave a CC50 at 72 h of 10 to 100 µM.

In the case of `CC[C@@H](C(=O)N1CCCOCC1)N(c1cc(C#CC(C)(C)C)sc1C(=O)O)C(=O)[C@H]1CC[C@H](C)CC1` [Compound 84, 5-(3,3-Dimethylbut-1-ynyl)-3-[(trans-4-methylcyclohexanecarbonyl)-[(1S)-1-(1,4-oxazepane-4-carbonyl)propyl]amino]thiophene-2-carboxylic acid], in data set [1], the IC50 was less than 0.1 µM. Also, in data set [2], the CC50 at 72 h lay within 10 to 100 µM.

For `CC(C)[C@@H](C(=O)N1CCOCC1)N(c1cc(C#CC(C)(C)C)sc1C(=O)O)C(=O)[C@H]1CC[C@H](C)CC1` [Compound 85, 5-(3,3-Dimethylbut-1-ynyl)-3-[(trans-4-methylcyclohexanecarbonyl)-[(1S)-2-methyl-1-(morpholine-4-carbonyl)propyl]amino]thiophene-2-carboxylic acid], in data set [1], the IC50 is less than 0.1 µM. In data set [2], this compound showed a CC50 at 72 h of 10 to 100 µM.

As to `CC(C)[C@@H](C(=O)N(C)C)N(c1cc(C#CC(C)(C)C)sc1C(=O)O)C(=O)[C@H]1CC[C@H](C)CC1` [Compound 86, 5-(3,3-Dimethylbut-1-ynyl)-3-[[(1S)-1-(dimethylcarbamoyl)-2-methyl-propyl]-(trans-4-methylcyclohexanecarbonyl)amino]thiophene-2-carboxylic acid], in data set [1], the IC50 is less than 0.1 µM. The compound also displayed a CC50 at 72 h in data set [2] of 10 to 100 µM.

For the compound `CCOC[C@@H](C(=O)N1CCOCC1)N(c1cc(C#CC(C)(C)C)sc1C(=O)O)C(=O)[C@H]1CC[C@H](C)CC1` [Compound 87, 5-(3,3-Dimethylbut-1-ynyl)-3-[[(1S)-1-(ethoxymethyl)-2-morpholino-2-oxo-ethyl]-(trans-4-methylcyclohexanecarbonyl)amino]thiophene-2-carboxylic acid], the IC50 in data set [1] is less than 0.1 µM. In data set [2], this compound yielded a CC50 at 72 h greater than 100 µM.

For the compound `CCOC[C@@H](C(=O)N(C)C)N(c1cc(C#CC(C)(C)C)sc1C(=O)O)C(=O)[C@H]1CC[C@H](C)CC1` [Compound 88, 3-[[(1S)-2-(Dimethylamino)-1-(ethoxymethyl)-2-oxo-ethyl]-(trans-4-methylcyclohexanecarbonyl)amino]-5-(3,3-dimethylbut-1-ynyl)thiophene-2-carboxylic acid], the IC50 in data set [1] is less than 0.1 µM. Besides, the CC50 at 72 h in data set [2] was greater than 100 µM.

For the compound `CC[C@@H](C(=O)N(C)C)N(c1cc(C#CC(C)C)sc1C(=O)O)C(=O)[C@H]1CC[C@H](C)CC1` [Compound 89, 3-[[(1S)-1-(dimethylcarbamoyl)propyl]-(trans-4-methylcyclohexanecarbonyl)amino]-5-(3-methylbut-1-ynyl)thiophene-2-carboxylic acid], in data set [1], the IC50 is less than 0.1 µM. For the same compound, the CC50 at 72 h in data set [2] was greater than 100 µM.

In the case of `CC[C@@H](C(=O)N1CCOCC1)N(c1cc(C#CC(C)C)sc1C(=O)O)C(=O)[C@H]1CC[C@H](C)CC1` [Compound 90, 5-(3-Methylbut-1-ynyl)-3-[(trans-4-methylcyclohexanecarbonyl)-[(1S)-1-(morpholine-4-carbonyl)propyl]amino]thiophene-2-carboxylic acid], the IC50 in data set [1] is less than 0.1 µM. The compound also gave a CC50 at 72 h in data set [2] greater than 100 µM.

For the compound `C[C@@H](CC(=O)N(C)C)N(c1cc(C#CC(C)(C)C)sc1C(=O)O)C(=O)[C@H]1CC[C@H](C)CC1` [Compound 96, 3-((trans)-N—((S)-4-(dimethylamino)-4-oxobutan-2-yl)-4-methylcyclohexanecarboxamido)-5-(3,3-dimethylbut-1-yn-1-yl)thiophene-2-carboxylic acid], in data set [1], the IC50 was less than 0.1 µM. This compound yielded a CC50 at 72 h in data set [2] of 10 to 100 µM.

Consider `CC1CCC(C(=O)N(CCC(=O)N2CCOCC2)c2cc(C#CC(C)(C)C)sc2C(=O)O)CC1` (centres unmarked) [Compound 97], for which the IC50 in data set [1] is less than 0.1 µM. The CC50 at 72 h in data set [2] was greater than 100 µM.

As to `C[C@@H](CC(=O)N1CCOCC1)N(c1cc(C#CC(C)(C)C)sc1C(=O)O)C(=O)[C@H]1CC[C@H](C)CC1` [Compound 105, 5-(3,3-Dimethylbut-1-ynyl)-3-[(trans-4-methylcyclohexanecarbonyl)-[(1S)-1-methyl-3-morpholino-3-oxo-propyl]amino]thiophene-2-carboxylic acid], in data set [1], the IC50 was less than 0.1 µM. Besides, the CC50 at 72 h in data set [2] was greater than 100 µM.

Regarding `C[C@H](CC(=O)N1CCOCC1)N(c1cc(C#CC(C)(C)C)sc1C(=O)O)C(=O)[C@H]1CC[C@H](C)CC1` [Compound 106, 5-(3,3-Dimethylbut-1-ynyl)-3-[(trans-4-methylcyclohexanecarbonyl)-[(1R)-1-methyl-3-morpholino-3-oxo-propyl]amino]thiophene-2-carboxylic acid], in data set [1], the IC50 is less than 0.1 µM. Besides, in data set [2], the CC50 at 72 h is greater than 100 µM.

Turning to `C[C@H](CN(c1cc(C#CC(C)(C)C)sc1C(=O)O)C(=O)[C@H]1CC[C@H](C)CC1)C(=O)N1CCOCC1` [Compound 109, 5-(3,3-dimethylbut-1-ynyl)-3-[(trans-4-methylcyclohexanecarbonyl)-[(2R)-2-methyl-3-morpholino-3-oxo-propyl]amino]thiophene-2-carboxylic acid], the IC50 in data set [1] was less than 0.1 µM. The same compound registered a half-maximal cytotoxic concentration (CC50) at 72 h in data set [2] greater than 100 µM.

The values are drawn from US20130190289A1, “COMPOUNDS AND METHODS FOR THE TREATMENT OR PREVENTION OF FLAVIVIRUS INFECTIONS” (priority 2010, published 2013).
